In patent US9409905B2, “Antibacterial compounds and methods for use” (PTC THERAPEUTICS, INC., priority 2011, dated 2016):
≈ marks a conversion by molar mass, not a printed value.

What was measured:
A. baumannii MXX2240 = test: Antibacterial activity, MIC, resistant strain (Table 4); type: cell-based; settings: Acinetobacter baumannii, MXX2240; resistant A. baumannii MMX2240, multi-drug resistant clinical isolate; read-out: MIC, MMX2240
Procedure, shortened: (§1)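 The resistant panel comprises multi-drug resistant clinical isolates. All strains were tested by microbroth dilution, with the MIC in μg/mL taken as the lowest concentration that prevented macroscopically visible growth.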

K. pneumoniae MXX1232 = test: as above; type: cell-based; settings: Klebsiella pneumoniae, MXX1232; resistant K. pneumoniae MMX1232, multi-drug resistant clinical isolate; read-out: MIC, MMX1232
Procedure, shortened: as §1

[1] = system: Klebsiella pneumoniae (K. pneumoniae) 35657; test: Antibacterial activity, MIC (Table 4); type: cell-based; settings: K. pneumoniae 35657, read-out: MIC, 35657
Procedure, shortened: as §1

[2] = system: Acinetobacter baumannii (A. baumannii) BAA747; test: Antibacterial activity, MIC (Table 4); type: cell-based; settings: A. baumannii BAA747, read-out: MIC, BAA747
Procedure, shortened: as §1

E. coli ELZ4251 = test: Antibacterial activity, MIC, multi-drug resistant clinical isolate (Table 3); type: cell-based; settings: Escherichia coli
Procedure, shortened: (§2)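 Growth inhibition is measured by microbroth dilution, and the minimum inhibitory concentration in μg/mL corresponds to the lowest drug level that prevents visible bacterial growth.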

E. coli ELZ4000 = test: as above; type: cell-based; settings: Escherichia coli, ELZ4000, read-out: MIC ELZ4000
Procedure, shortened: as §2

E. coli LZ3111 = test: Antibacterial activity, MIC, quinolone resistant strain (Table 2); type: cell-based; settings: Escherichia coli, LZ3111, read-out: MIC LZ3111
Procedure, shortened: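 Lowest concentration giving no macroscopically visible growth was taken as the MIC (μg/mL) after microbroth dilution testing.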

[3] = system: Staphylococcus aureus (S. aureus) 29213; test: Antibacterial activity, microbroth dilution MIC (Table 1); type: cell-based; settings: microbroth dilution, Gram-positive S. aureus 29213, read-out: MIC, 29213
Procedure, shortened: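 Microbroth dilution was used. MIC, in μg/mL, is the lowest drug concentration preventing macroscopically visible growth under the test conditions.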

[4] = system: Escherichia coli (E. coli) BAS849; test: as above; type: cell-based; settings: microbroth dilution, super sensitive Gram-negative E. coli BAS849, read-out: MIC, BAS849
Procedure, shortened: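 Lowest concentration stopping macroscopically visible growth under test conditions, by broth microdilution, defines the MIC (μg/mL).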

[5] = system: Pseudomonas aeruginosa (P. aeruginosa) 27853; test: Antibacterial activity, MIC (Table 5); type: cell-based; settings: P. aeruginosa 27853, read-out: MIC, 27853
Procedure, shortened: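 MIC in μg/mL from broth microdilution; endpoint is the lowest drug level giving no visible growth.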

E. coli 25922 = test: Antibacterial activity, microbroth dilution MIC (Table 1); type: cell-based, Escherichia coli; settings: Escherichia coli; microbroth dilution; control Gram-negative E. coli 25922 strain; read-out: MIC, 25922
Procedure, shortened: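 Using broth microdilution, MIC endpoints (μg/mL) mark where visible growth no longer appears; the panel spans sensitive and control Gram-negative strains plus a Gram-positive strain.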

[6] = system: Neisseria meningitidis (N. meningitidis) 13090; test: Antibacterial activity, MIC (Table 8); type: cell-based
Text: The antibacterial activity from a microbroth dilution method may be presented as the minimum inhibitory concentration (MIC in μg/mL). The MIC value is the lowest concentration of drug which prevents macroscopically visible growth under test conditions.
Antibacterial activity of test compounds against the Gram-negative bacteria Haemophilus influenzae (H. influenzae) 49247 is shown in Table 6, Moraxella catarrhalis (M. catarrhalis) 25238 is shown in Table 7 and Neisseria meningitidis (N. meningitidis) 13090 is shown in Table 8.

Structure (SMILES) | MIC (A. baumannii MXX2240) [µg/mL] | MIC (K. pneumoniae MXX1232) [µg/mL] | MIC [1] [µg/mL] | MIC [2] [µg/mL] | MIC (E. coli ELZ4251) [µg/mL] | MIC (E. coli ELZ4000) [µg/mL] | MIC (E. coli LZ3111) [µg/mL] | MIC [3] [µg/mL] | MIC [4] [µg/mL] | MIC [5] [µg/mL] | MIC (E. coli 25922) [µg/mL] | MIC [6] [µg/mL]
CCc1cc(C(=O)O)c(=O)[nH]c1-c1ccc2c(c1)cc(CCN1CCCCC1)n2C [Cpd 160, 5-ethyl-6-(1-methyl-2-(2-(piperidin-1-yl)ethyl)-1H-indol-5-yl)-2-oxo-1,2-dihydropyridine-3-carboxylic acid] | 12.5 to 150 (≈ 30.7 to 368 µM) | 12.5 to 150 (≈ 30.7 to 368 µM) | < 1 | 1 to 3.5 (≈ 2.45 to 8.59 µM) | 12.5 to 150 (≈ 30.7 to 368 µM) | 12.5 to 150 (≈ 30.7 to 368 µM) | 12.5 to 150 (≈ 30.7 to 368 µM) | 12.5 to 150 (≈ 30.7 to 368 µM) | < 1 | 12.5 to 150 (≈ 30.7 to 368 µM) | < 1 | 
CCc1cc(C(=O)O)c(=O)[nH]c1-c1ccc2c(c1)cc(CCN(C)C)n2C [Cpd 161, 6-(2-(2-(dimethylamino)ethyl)-1-methyl-1H-indol-5-yl)-5-ethyl-2-oxo-1,2-dihydropyridine-3-carboxylic acid] | 12.5 to 150 (≈ 34 to 408 µM) | 12.5 to 150 (≈ 34 to 408 µM) | < 1 | 3.5 to 12.5 (≈ 9.53 to 34 µM) | 12.5 to 150 (≈ 34 to 408 µM) | 12.5 to 150 (≈ 34 to 408 µM) | 12.5 to 150 (≈ 34 to 408 µM) | 12.5 to 150 (≈ 34 to 408 µM) | < 1 | 3.5 to 12.5 (≈ 9.53 to 34 µM) | < 1 | 
CCc1c(-c2ccc3c(c2)cc(CN2CCCC2)n3C)[nH]c(=O)c(C(=O)O)c1O [Cpd 164, 5-ethyl-4-hydroxy-6-(1-methyl-2-(pyrrolidin-1-ylmethyl)-1H-indol-5-yl)-2-oxo-1,2-dihydropyridine-3-carboxylic acid] | 3.5 to 12.5 (≈ 8.85 to 31.6 µM) | 12.5 to 150 (≈ 31.6 to 379 µM) | 3.5 to 12.5 (≈ 8.85 to 31.6 µM) | < 1 | 12.5 to 150 (≈ 31.6 to 379 µM) | 12.5 to 150 (≈ 31.6 to 379 µM) | 3.5 to 12.5 (≈ 8.85 to 31.6 µM) | 3.5 to 12.5 (≈ 8.85 to 31.6 µM) | < 1 | 3.5 to 12.5 (≈ 8.85 to 31.6 µM) | < 1 | 
CCc1c(-c2ccc3c(c2)cc(CN2CCC(O)C2)n3C)[nH]c(=O)c(C(=O)O)c1O (stereo not shown) [Cpd 178, 5-ethyl-4-hydroxy-6-(2-((3-hydroxypyrrolidin-1-yl)methyl)-1-methyl-1H-indol-5-yl)-2-oxo-1,2-dihydropyridine-3-carboxylic acid] | 12.5 to 150 (≈ 30.4 to 365 µM) | 12.5 to 150 (≈ 30.4 to 365 µM) | 3.5 to 12.5 (≈ 8.51 to 30.4 µM) | 1 to 3.5 (≈ 2.43 to 8.51 µM) | 12.5 to 150 (≈ 30.4 to 365 µM) | 12.5 to 150 (≈ 30.4 to 365 µM) | 3.5 to 12.5 (≈ 8.51 to 30.4 µM) | 3.5 to 12.5 (≈ 8.51 to 30.4 µM) | < 1 | 3.5 to 12.5 (≈ 8.51 to 30.4 µM) | < 1 | 
CCc1c(-c2ccc3c(c2)cc2n3CCC2N2CCCC2)[nH]c(=O)c(C(=O)O)c1O (stereo not shown) [Cpd 304, 5-ethyl-4-hydroxy-2-oxo-6-(1-(pyrrolidin-1-yl)-2,3-dihydro-1H-pyrrolo[1,2-a]indol-7-yl)-1,2-dihydropyridine-3-carboxylic acid] | 12.5 to 150 (≈ 30.7 to 368 µM) | 12.5 to 150 (≈ 30.7 to 368 µM) | 3.5 to 12.5 (≈ 8.59 to 30.7 µM) | 1 to 3.5 (≈ 2.45 to 8.59 µM) | 12.5 to 150 (≈ 30.7 to 368 µM) | 12.5 to 150 (≈ 30.7 to 368 µM) | 3.5 to 12.5 (≈ 8.59 to 30.7 µM) | 12.5 to 150 (≈ 30.7 to 368 µM) | < 1 | 12.5 to 150 (≈ 30.7 to 368 µM) | < 1 | 
Cc1c(-c2ccc3c(c2)cc(CNC2CCC2)n3C)[nH]c(=O)c(C(=O)O)c1O [Cpd 354, 6-(2-((cyclobutylamino)methyl)-1-methyl-1H-indol-5-yl)-4-hydroxy-5-methyl-2-oxo-1,2-dihydropyridine-3-carboxylic acid] | < 1 | 12.5 to 150 (≈ 32.8 to 393 µM) | 1 to 3.5 (≈ 2.62 to 9.18 µM) | 1 to 3.5 (≈ 2.62 to 9.18 µM) | < 1 | 3.5 to 12.5 (≈ 9.18 to 32.8 µM) | < 1 | 12.5 to 150 (≈ 32.8 to 393 µM) | < 1 | 12.5 to 150 (≈ 32.8 to 393 µM) | 1 to 3.5 (≈ 2.62 to 9.18 µM) | < 1
Cc1c(-c2ccc3c(c2)cc2n3CC(N)C2)[nH]c(=O)c(C(=O)O)c1O.Cl (stereo not shown) [Cpd 412, 6-(2-amino-2,3-dihydro-1H-pyrrolo[1,2-a]indol-7-yl)-4-hydroxy-5-methyl-2-oxo-1,2-dihydropyridine-3-carboxylic acid hydrochloride] | 12.5 to 150 | 12.5 to 150 | 3.5 to 12.5 | 12.5 to 150 | 3.5 to 12.5 | 3.5 to 12.5 | 1 to 3.5 | 12.5 to 150 | 1 to 3.5 | 12.5 to 150 | 3.5 to 12.5 | 1 to 3.5
